In the supplement of paper PMC10307832:

Assays:
Experiment in all cases: relative viability (nuclei count vs DMSO), 5 days (fraction); higher = more cells survive
AZ628 + Palbociclib = compound: CC1=C(C=C(C=C1)NC(=O)C2=CC(=CC=C2)C(C)(C)C#N)NC3=CC4=C(C=C3)N=CN(C4=O)C [AZ628] + CC(=O)c1c(C)c2cnc(Nc3ccc(N4CCNCC4)cn3)nc2n(C2CCCC2)c1=O [Palbociclib] (partner 0.5 µM)
Summary of the method: (§1)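 The day after seeding in 1536-well plates, lung cancer cell lines were treated by pin tool with a single drug, or with a fixed anchor-drug dose together with five library-drug doses (not always all listed) in √10 steps. After 5 days, a combined fix-and-stain solution (final 0.05% Triton X-100, 1% formaldehyde, 1 ug/ml Hoechst) was added. Nuclei counted on 4× images gave relative viability as treated counts over vehicle counts, reported as the median of duplicate plates.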

AZ628 + Linsitinib = compound: CC1=C(C=C(C=C1)NC(=O)C2=CC(=CC=C2)C(C)(C)C#N)NC3=CC4=C(C=C3)N=CN(C4=O)C [AZ628] + C[C@]1(O)C[C@@H](c2nc(-c3ccc4ccc(-c5ccccc5)nc4c3)c3c(N)nccn32)C1 [Linsitinib] (partner 1 µM)
Summary of the method: as §1

AZ628 + Tozasertib = compound: CC1=C(C=C(C=C1)NC(=O)C2=CC(=CC=C2)C(C)(C)C#N)NC3=CC4=C(C=C3)N=CN(C4=O)C [AZ628] + Cc1cc(Nc2cc(N3CCN(C)CC3)nc(Sc3ccc(NC(=O)C4CC4)cc3)n2)n[nH]1 [Tozasertib] (partner 0.1 µM)
Summary of the method: as §1

QS11 + AZD7762 = compound: C1CC2=C(C1)C=C(C=C2)OC3=NC(=C4C(=N3)N(C=N4)CC5=CC=C(C=C5)C6=CC=CC=C6)N[C@@H](CC7=CC=CC=C7)CO [QS11] + NC(=O)Nc1cc(-c2cccc(F)c2)sc1C(=O)N[C@H]1CCCNC1 [AZD7762] (partner 0.2 µM)
Summary of the method: as §1

Cell Line	relative viability (AZ628 + Palbociclib; first compound 0.08 µM)	relative viability (AZ628 + Palbociclib; first compound 0.253 µM)	relative viability (AZ628 + Palbociclib; first compound 0.8 µM)	relative viability (AZ628 + Palbociclib; first compound 2.53 µM)	relative viability (AZ628 + Palbociclib; first compound 8 µM)	relative viability (AZ628 + Linsitinib; first compound 0.08 µM)	relative viability (AZ628 + Linsitinib; first compound 0.253 µM)	relative viability (AZ628 + Linsitinib; first compound 0.8 µM)	relative viability (AZ628 + Linsitinib; first compound 2.53 µM)	relative viability (AZ628 + Linsitinib; first compound 8 µM)	relative viability (AZ628 + Tozasertib; first compound 0.08 µM)	relative viability (AZ628 + Tozasertib; first compound 0.253 µM)	relative viability (AZ628 + Tozasertib; first compound 0.8 µM)	relative viability (AZ628 + Tozasertib; first compound 2.53 µM)	relative viability (AZ628 + Tozasertib; first compound 8 µM)	relative viability (QS11 + AZD7762; first compound 0.253 µM)	relative viability (QS11 + AZD7762; first compound 0.8 µM)	relative viability (QS11 + AZD7762; first compound 2.53 µM)	relative viability (QS11 + AZD7762; first compound 8 µM)	relative viability (QS11 + AZD7762; first compound 0.08 µM)
COR-L23	0.327	0.293	0.257	0.268	0.187	1.05	0.886	0.986	0.81	0.492	0.186	0.15	0.157	0.146	0.12	–	–	–	–	–
ChaGo-K-1	0.993	0.934	0.892	0.986	1.02	–	–	–	–	–	0.241	0.231	0.218	0.212	0.171	0.862	1	0.941	1	–
NCI-H1563	–	–	–	–	–	1.3	1.18	1.23	1.29	1.29	–	–	–	–	–	–	–	–	–	–
SW 1573	0.409	0.312	0.275	0.291	0.173	0.599	0.725	0.661	0.632	0.412	0.203	0.186	0.2	0.135	0.122	–	–	–	–	–
NCI-H2170	0.413	0.349	0.381	0.418	0.424	–	–	–	–	–	0.823	0.741	0.693	0.852	0.667	0.942	0.722	0.871	1.02	0.87
COR-L 105	0.368	0.368	0.429	0.344	0.453	0.933	0.897	0.934	0.857	0.651	0.387	0.374	0.359	0.315	0.376	–	–	–	–	–
NCI-H1792	0.66	0.632	0.52	0.558	0.388	0.583	0.54	0.435	0.48	0.339	–	–	–	–	–	0.733	0.595	0.385	0.34	–
NCI-H2009	0.201	0.177	0.141	0.125	0.174	1.06	0.973	0.724	1.05	0.358	0.667	0.571	0.599	0.569	0.298	–	–	–	–	–
NCI-H2023	0.45	0.381	0.239	0.406	0.153	0.723	0.677	0.72	0.758	0.358	0.308	0.284	0.235	0.212	0.137	–	–	–	–	–
NCI-H520	0.21	0.224	0.197	0.254	0.199	1.08	1.03	0.872	1.01	0.62	0.407	0.453	0.365	0.422	0.412	–	–	–	–	–
NCI-H2228	0.763	0.605	0.843	0.737	0.619	0.504	0.686	0.622	1.1	0.517	0.241	0.288	0.239	0.272	0.161	–	–	–	–	–
